We go through 22 molecules from ChEMBL document CHEMBL4184158, “Azolylthioacetamides as a potent scaffold for the development of metallo-β-lactamase inhibitors” (Bioorg Med Chem Lett, 2017).

The source made the active and inactive calls. The calls are words filed in the database; no cut-off is given here.

In general, IC50 refers to the concentration that gives 50% inhibition. As usually defined, the MIC is the lowest concentration that inhibits growth of the organism.

Assay [1] has as its system Bacteria. Put plainly: Inhibition of bacterial metallo-beta-lactamase L1 expressed in Escherichia coli […] cells at 500 uM using imipenem as substrate by UV spectrometry.
The test system of assay [2] is Bacteria. Description: Inhibition of bacterial NDM1 expressed in Escherichia coli DH5R transformed cells at 500 uM using imipenem as substrate by UV spectrometry.
A short description of assay [3]: Inhibition of bacterial ImiS expressed in Escherichia coli BL21 (DE3) transformed cells using imipenem as substrate by UV spectrometry. Also noted: species or system Bacteria.
In assay [4] the test system is Bacteria. Description: Inhibition of bacterial NDM1 expressed in Escherichia coli BL21 (DE3) transformed cells assessed as potentiation of imipenem-induced antibacterial activity by measuring imipenem MIC after 20 hrs by broth microdilution assay (reference value: 16 ug/ml). On the technique in general: Dilution methods test growth across graded concentrations, often in twofold steps.

Assay [5] deals with Bacteria. Description: Inhibition of bacterial ImiS expressed in Escherichia coli BL21 (DE3) transformed cells assessed as potentiation of imipenem-induced antibacterial activity by measuring imipenem MIC after 20 hrs by broth microdilution assay (reference value: 1 ug/ml).
Assay [6] concerns Escherichia coli. Description: Antibacterial activity against Escherichia coli BL21(DE3) at 16 ug/ml after 20 hrs by broth microdilution assay. The format is functional, organism-based.
Assay [7] in a line: Inhibition of bacterial NDM1 expressed in Escherichia coli DH5R transformed cells using imipenem as substrate by UV spectrometry. The arrangement: species or system Bacteria.
In assay [8] the test system is Bacteria. Put plainly: Inhibition of bacterial ImiS expressed in Escherichia coli BL21 (DE3) transformed cells at 500 uM using imipenem as substrate by UV spectrometry.

Turning to `O=C(CSc1nnc(Cc2ccccc2)o1)Nc1nc2ccccc2o1`, the inhibition result in assay [1] and in assay [2] was “inactive” each time. For the same molecule, the IC50 in assay [3] is 384000 nM. For the same molecule, the MIC was found to be 32 µg/mL in assay [4] and 0.5 µg/mL in assay [5]. Moreover, the result in assay [6] was inactive.
`O=C(CSc1nnc(Cc2ccccc2)o1)Nc1nc2ccc([N+](=O)[O-])cc2[nH]1`: the inhibition entry in assay [1] and in assay [8] was “inactive” in each case. The MIC in assay [4] came to 4 µg/mL; in assay [5] it was 1 µg/mL. For the same molecule, the IC50 in assay [7] was 500 nM. Besides, in assay [6], the outcome was inactive.
`Nn1c(Cc2ccccc2)nnc1SCC(=O)Nc1nc2ccccc2o1`: the inhibition entry in assay [1] and in assay [2] was “inactive” in each case. The same molecule had an IC50 in assay [3] of 29000 nM. Besides, the values for the MIC in assay [4] and in assay [5] were 16 µg/mL and 0.5 µg/mL, respectively. For the same molecule, in assay [6], the result was inactive.
For `O=C(CSc1nnc(Cc2ccccc2)s1)Nc1nc2ccccc2[nH]1`, the inhibition entry in assay [1] and in assay [2] was “inactive” each time. For the same molecule, the midpoint of inhibition in assay [3], the IC50, lay at 18000 nM. The MIC in assay [4] was 16 µg/mL; in assay [5] it was 0.5 µg/mL. Further, the outcome in assay [6] was inactive.
On to `Nc1ccccc1-c1nnc(SCC(=O)Nc2nc3ccc([N+](=O)[O-])cc3[nH]2)s1`, for which the inhibition result in assay [1] and in assay [8] was “inactive” in each case. Moreover, the MIC in assay [4] amounted to 8 µg/mL; in assay [5], 2 µg/mL. The molecule further yielded an IC50 in assay [7] of 2500 nM. Further, the result in assay [6] was inactive.
In the case of `O=C(CSc1nnc(Cc2ccccc2)s1)Nc1nc2ccccc2o1`, the inhibition result in assay [1] and in assay [2] was “inactive” each time. Besides, the IC50 in assay [3] was 259000 nM. In addition, the MIC in assay [4] amounted to 16 µg/mL; in assay [5] it was 0.5 µg/mL. Further, in assay [6], the result was inactive.
Consider `O=C(CSc1nnc(-c2cccc([N+](=O)[O-])c2)[nH]1)Nc1nc2ccccc2o1`, for which the inhibition result in assay [1] and in assay [2] was “inactive” throughout. For the same molecule, in assay [3], 378000 nM corresponded to half-maximal inhibition (IC50). The MIC in assay [4] was found to be 16 µg/mL; in assay [5], 0.25 µg/mL. The result in assay [6] was inactive.
On to `O=C(CSc1nnc(-c2ccccc2O)o1)Nc1nc2ccc([N+](=O)[O-])cc2[nH]1`, for which the inhibition entry in assay [1] and in assay [8] was “inactive” each time. Besides, the MIC in assay [4] amounted to 8 µg/mL; in assay [5], 1 µg/mL. This molecule returned an IC50 in assay [7] of 1300 nM. In addition, the result in assay [6] was inactive.
Regarding `Nn1c(Cc2cccs2)nnc1SCC(=O)Nc1nc2ccccc2o1`, the inhibition entry in assay [1] and in assay [2] was “inactive” throughout. The IC50 in assay [3] was 53000 nM. For the same molecule, the values for the MIC in assay [4] and in assay [5] were 16 µg/mL and 0.5 µg/mL, respectively. The result in assay [6] was inactive.
Turning to `O=C(CSc1nnc(-c2ccccc2O)[nH]1)Nc1nc2ccc([N+](=O)[O-])cc2[nH]1`, the inhibition result in assay [1] and in assay [8] was “inactive” in each case. In addition, the results for the MIC in assay [4] and in assay [5] were 8 µg/mL and 1 µg/mL, respectively. The IC50 in assay [7] was 5900 nM. In addition, the result in assay [6] was inactive.
As to `O=C(CSc1nnc(-c2ccccc2O)o1)Nc1nc2ccccc2[nH]1`, the inhibition entry in assay [1] and in assay [2] was “inactive” each time. This molecule also registered an IC50 in assay [3] of 630 nM. For the same molecule, the MIC was determined as 16 µg/mL in assay [4] and 0.5 µg/mL in assay [5]. Further, the outcome in assay [6] was inactive.
As to `Nc1ccccc1-c1nnc(SCC(=O)Nc2nc3ccccc3[nH]2)[nH]1`, the inhibition result in assay [1] and in assay [2] was “inactive” throughout. In assay [3], this molecule registered an IC50 of 940 nM. Besides, the MIC amounted to 16 µg/mL in assay [4] and 0.5 µg/mL in assay [5]. Also, the outcome in assay [6] was inactive.
`Nn1c(Cc2ccccc2)nnc1SCC(=O)Nc1nc2ccccc2[nH]1`: the inhibition result in assay [1] and in assay [2] was “inactive” throughout. Also, the IC50 in assay [3] was found to be 270 nM. Besides, the minimal inhibitory concentration (MIC) amounted to 16 µg/mL in assay [4] and 0.5 µg/mL in assay [5]. For the same molecule, the outcome in assay [6] was inactive.
For `O=C(CSc1nnc(-c2cccc([N+](=O)[O-])c2)s1)Nc1nc2ccccc2o1`, the inhibition result in assay [1] and in assay [2] was “inactive” in each case. Further, the IC50 in assay [3] is 133000 nM. The MIC in assay [4] is 16 µg/mL; in assay [5], 0.5 µg/mL. The outcome in assay [6] was inactive.
Turning to `O=C(CSc1nnc(-c2cccc([N+](=O)[O-])c2)s1)Nc1nc2ccccc2[nH]1`, the inhibition entry in assay [1] and in assay [2] was “inactive” throughout. Further, in assay [3], half-maximal inhibition (IC50) required 1800 nM. The MIC in assay [4] turned out to be 16 µg/mL; in assay [5], 0.5 µg/mL. The outcome in assay [6] was inactive.
Take `O=C(CSc1nnc(-c2ccccc2O)s1)Nc1nc2ccccc2o1`: the inhibition entry in assay [1] and in assay [2] was “inactive” each time. Besides, inhibition in assay [3] was half-maximal at 196000 nM (IC50). Also, the MIC was found to be 16 µg/mL in assay [4] and 0.5 µg/mL in assay [5]. In addition, in assay [6], the result was inactive.
On to `O=C(CSc1nnc(-c2ccccc2O)s1)Nc1nc2ccccc2[nH]1`, for which the inhibition entry in assay [1] and in assay [2] was “inactive” in each case. The IC50 in assay [3] is 330 nM. The results for the MIC in assay [4] and in assay [5] were 16 µg/mL and 0.5 µg/mL, respectively. Further, in assay [6], the outcome was inactive.
Take `Nc1ccccc1-c1nnc(SCC(=O)Nc2nc3ccccc3[nH]2)s1`: the inhibition entry in assay [1] and in assay [2] was “inactive” each time. Further, the IC50 in assay [3] is 1200 nM. Further, the MIC in assay [4] amounted to 32 µg/mL; in assay [5], 0.5 µg/mL. Moreover, in assay [6], the outcome was inactive.
Regarding `O=C(CSc1nnc(Cc2ccccc2)o1)Nc1nc2ccccc2[nH]1`, the inhibition entry in assay [1] and in assay [2] was “inactive” each time. Besides, in assay [3], the IC50 was 3000 nM. Moreover, the MIC in assay [4] is 16 µg/mL; in assay [5], 0.25 µg/mL. Further, the outcome in assay [6] was inactive.
With `O=C(CSc1nnc(-c2ccccc2O)s1)Nc1nc2ccc([N+](=O)[O-])cc2[nH]1`, the inhibition result in assay [1] and in assay [8] was “inactive” throughout. Further, the results for the MIC in assay [4] and in assay [5] were 8 µg/mL and 1 µg/mL, respectively. In assay [7], this molecule registered an IC50 of 6400 nM. In addition, in assay [6], the result was inactive.
In the case of `O=C(CSc1nnc(CCc2nnc(SCC(=O)Nc3nc4ccccc4[nH]3)s2)s1)Nc1nc2ccccc2[nH]1`, the inhibition entry in assay [1] and in assay [2] was “inactive” each time. The midpoint of inhibition in assay [3], the IC50, lay at 390 nM. Further, the MIC in assay [4] came out at 16 µg/mL; in assay [5], 0.25 µg/mL. Moreover, the outcome in assay [6] was inactive.
In the case of `Nc1ccccc1-c1nnc(SCC(=O)Nc2nc3ccccc3[nH]2)o1`, the inhibition result in assay [1] and in assay [2] was “inactive” throughout. For the same molecule, half-maximal inhibition in assay [3] (IC50) was put at 1700 nM. In addition, the MIC in assay [4] came out at 16 µg/mL; in assay [5], 0.25 µg/mL. In addition, the outcome in assay [6] was inactive.
